Values of other authors, collected in US20230364254A1, “METHODS FOR TREATING CANCERS WITH ANTIBODY DRUG CONJUGATES (ADC) THAT BIND TO 191P4D12 PROTEINS” (priority 2020, published 2023).
Where two headings read alike, the source gives them in different places.

Assays:
[1] = test system: metastatic urothelial cancer; conditions: cited from earlier work
[2] = test system: acute myeloid leukemia (AML); conditions: administered alone; cited from earlier work
[3] = first line, patients ineligible for cisplatin, open-label single arm study
[4] = second-line, post-platinum, phase 3 study in 542 patients

CC(=O)O[C@@]12CO[C@@H]1C[C@H](O)[C@@]1(C)C(=O)[C@H](O)C3=C(C)[C@@H](OC(=O)[C@H](O)[C@@H](NC(=O)OC(C)(C)C)c4ccccc4)C[C@@](O)([C@@H](OC(=O)c4ccccc4)[C@H]21)C3(C)C [docetaxel]
ORR (n=2/19) ([1]; after platinum and CPI therapy): 10.5%

CC[C@]12C=CCN3CC[C@@]4(c5cc([C@@]6(C(=O)OC)C[C@@H]7C[C@@H](C(C)(F)F)CN(Cc8c6[nH]c6ccccc86)C7)c(OC)cc5N(C)[C@H]4[C@@](O)(C(=O)OC)[C@@H]1OC(C)=O)[C@@H]32 [vinflunine]
overall response rate ([1]; second-line treatment of metastatic disease): 9%
hazard ratio ([1]; second-line, vinflunine+BSC vs BSC alone): 0.88
survival benefit ([1]; second-line, vinflunine+best supportive care (BSC) vs BSC alone): 2 months
survival ([1]; second-line, vinflunine+best supportive care (BSC)): 6.9 months

CT-011: anti-PD-1 antibody, a humanized antibody
response in acute myeloid leukemia (AML) at relapse [2]: failed to show response

atezolizumab: anti-programmed death-ligand 1 (PD-L1) immune checkpoint inhibitor
median OS [1, 3]: 15.9 months
objective response rate (ORR) [1, 3]: 23%
confirmatory phase 3 trial outcome ([1]; second-line): failed to meet its primary endpoint of OS

pembrolizumab: humanized monoclonal IgG4 anti-PD-1 antibody
ORR ([1]; first line, patients ineligible for cisplatin, open label single arm study in 370 patients): 29%
difference in progression-free survival (PFS) between the two arms ([1]; second-line, post-platinum, phase 3, vs taxane chemotherapy or vinflunine): No statistically significant difference
ORR [1, 4]: 21%
OS [1, 4]: 10.3 months
